# According to US20240041976A1, “COMPOSITION AND USE” (priority 2020, published 2024):
# Experiments:
# Type in all cases: cell-based, Staphylococcus aureus
# S. aureus Newman biofilm = test: Biofilm-oriented antimicrobial test (BOAT), MIC50 in biofilms
# Description: (§1) Synergistic interactions between antimicrobials were determined using the fractional inhibition concentration (FIC). The FIC values were calculated as follows: the sum of the FIC =FICa+FICb+FICc, where the FICa means MIC of A in combination/MIC of A alone, FICb means MIC of B in combination/MIC of B, and FICc means MIC of C in combination/MIC of C alone. Effects were considered as synergistic if FIC was ≤0.5 for two components mixture and ≤0.75 for three components mixture.
# (§2) Staphylococcus aureus strains were inoculated in 5 ml of TSB and incubated O/N at 37° C. Ten μl of the O/N cultures were then inoculated in 90 μl of TSB supplemented with 1% glucose and 1% NaCl (TSB-GN) in the appropriate wells of a 96-well microtiter plate (Sarstedt) to a final volume of 100 μl. The plates were then incubated at 37° C. for 24 h. After the incubation, the presence of the biofilm at the bottom of the wells was assessed visually.
# (§3) The BOAT assay was performed as described previously (Gronseth et al., 2017, Int. J. Pediatr. Otorhinolaryngol., Vol. 103, p 58-64) with some modifications. The serial dilutions of the antimicrobials were prepared in challenge plates as follows: 175 μl of TSB were transferred in each row of a 96-well microtiter plate, except for the first row, according to the number of microbial strains to treat. In the first row of the plate, the antimicrobials were diluted to their respective working concentrations in a final volume of 350 μl of TSB. From the first row, 175 μl of the antimicrobial dilutions were then transferred to the second row of the plate and further serially diluted to the bottom of the plate. The same procedure was followed to prepare the controls, except that instead of the antimicrobials an equivalent volume of the respective vehicles were used. The biofilms were allowed to form for 24 h and then washed twice with 100 μl of sterile saline buffer and a total of 150 μl of the antimicrobial and control dilutions were transferred from the challenge plate to the corresponding wells of the biofilm plate. The challenged biofilms were then incubated for an additional 24 h at 37° C. After the challenge period, the antimicrobial dilutions were removed and the biofilms were carefully washed three times with 150 μl of sterile saline buffer. A total of 100 μl of TSB supplemented with 0.025% of triphenyl-tetrazolium chloride (TTC, Sigma) were then added to each well of the plate and further incubated at 37° C. for 5h. The results were then assessed by monitoring the development (or not) of red formazan (red colour), denoting the retention of metabolic activity by bacterial cells (Moussa et al., 2013, J. Mycol., Vol. 2013; Perez et al., 2010, Lett. Appl. Microbiol., Vol. 51, p 331-337). The medium was then removed and 200 μl of an ethanol:acetone (70:30) mixture was added to the wells and incubated O/N in order to extract the red formazan. The amount of extracted dye, reflecting the degree of bacterial cell metabolic activity, was then quantified by spectrophotometric readings at 492 nm.
# [1] = system: S. aureus USA 300 biofilm; test: as above
# Description: as §1, §2, §3
# [2] = system: S. aureus ATTC 10832 biofilm; test: as above
# Description: as §1, §2, §3
# S.a. 3255 biofilm = test: as above
# Description: as §1, §2, §3
# [3] = system: S. aureus ATTC 29213 biofilm; test: as above
# Description: as §1, §2, §3
# [4] = system: S. aureus ATTC 33591 biofilm; test: as above; settings: ATTC 33591, biofilm
# Description: as §1, §2, §3
# S. aureus Newman = test: Planktonic cell growth inhibition assay (MIC50, liquid culture)
# Description: (§4) Growth inhibition assays were performed in 96-well microtiter plates as described previously (Chi and Holo, 2018, supra). Briefly, 135 μl of TSB were dispensed in each well of a microtiter plate (according to the number of bacterial strains tested) except in the wells of the first row. The antimicrobials were diluted in TSB to working concentrations in a final volume of 285 μl and dispensed in the wells of the first row. The working concentrations were 100 μg/μl for garvicin KS, 10 μg/μl for micrococcin P1 and 1 mg/ml for penicillin G. From the first row, 150 μl of the antimicrobials were then serially diluted (two-fold dilutions) in a sequential fashion until the last row of the plate. Finally, 15 μl of a fresh O/N culture of each strain were added in the appropriate wells to reach a final volume of 150 μl in each well. The plates were then incubated at 37° C. for 24 h. The growth inhibition was expressed as minimum inhibitory concentration (MIC50), which refers to the minimum concentration of the antimicrobial needed to reduce at least 50% of the microbial growth compared to the untreated control. The MIC50 was assessed by optical density readings at 600 nm (O.D.600).
# as §1
# S. aureus ATTC 29213 = test: as above
# Description: as §4, §1
# S. aureus ATTC 33591 = test: as above
# Description: as §4, §1
# S. aureus USA 300 = test: as above
# Description: as §4, §1
# [5] = Staphylococcus aureus, individual component, read-out: MIC50
# [6] = garvicin KS + micrococcin P1 + penicillin G
# [7] = Staphylococcus aureus, USA300, individual component, read-out: MIC50
structure (smiles),measurement,setting,value
"C/C=C(\NC(=O)c1csc(-c2csc(-c3ccc4c(n3)-c3csc(n3)[C@H]([C@@H](C)O)NC(=O)c3csc(n3)[C@H](C(C)C)NC(=O)c3csc(n3)/C(=C/C)NC(=O)[C@H]([C@@H](C)O)NC(=O)c3csc-4n3)n2)n1)C(=O)NC[C@@H](C)O [MP1, micrococcin P1]",MIC50,S. aureus Newman biofilm; [5],> 100 µg/mL
same,MIC50 of the component in combination,S. aureus Newman biofilm; garvicin KS + micrococcin P1,25 µg/mL
same,MIC50 of the component in combination,S. aureus Newman biofilm; [6],25 µg/mL
same,MIC50,[1]; [7],> 100 µg/mL
same,MIC50 of the component in combination,[1]; garvicin KS + micrococcin P1,100 µg/mL
same,MIC50 of the component in combination,[1]; [6],100 µg/mL
same,MIC50,"[2]; Staphylococcus aureus, ATTC10832BIOFILM, individual component, read-out: MIC50",> 100 µg/mL
same,MIC50 of the component in combination,[2]; garvicin KS + micrococcin P1,25 µg/mL
same,MIC50 of the component in combination,[2]; [6],3.1 µg/mL
same,MIC50,S.a. 3255 biofilm; [5],> 100 µg/mL
same,MIC50 of the component in combination,S.a. 3255 biofilm; garvicin KS + micrococcin P1,2.5 × 10^−2. mg/ml
same,MIC50 of the component in combination,S.a. 3255 biofilm; [6],0.0063 mg/mL
same,MIC50,"[3]; Staphylococcus aureus, ATTC29213BIOFILM, individual component, read-out: MIC50",> 100 µg/mL
same,MIC50 of the component in combination,[3]; garvicin KS + micrococcin P1,25 µg/mL
same,MIC50 of the component in combination,[3]; [6],6.3 µg/mL
same,MIC50 of the component in combination,[4]; garvicin KS + micrococcin P1,>100 µg/mL
same,MIC50 of the component in combination,[4]; [6],100 µg/mL
same,MIC50,"[4]; Staphylococcus aureus, ATTC33591BIOFILM, individual component, read-out: MIC50",> 100 µg/mL
same,MIC50,S. aureus Newman; [5],0.313 µg/mL
same,MIC50 of the component in combination,S. aureus Newman; garvicin KS + micrococcin P1,0.313 µg/mL
same,MIC50 of the component in combination,S. aureus Newman; [6],<0.078 µg/mL
same,MIC50,"S. aureus ATTC 29213; Staphylococcus aureus, ATTC29213, individual component, read-out: MIC50",2.5 µg/mL
same,MIC50 of the component in combination,S. aureus ATTC 29213; garvicin KS + micrococcin P1,1.3 µg/mL
same,MIC50 of the component in combination,S. aureus ATTC 29213; [6],0.31 µg/mL
same,MIC50,"S. aureus ATTC 33591; Staphylococcus aureus, ATTC33591, individual component, read-out: MIC50",> 10 µg/mL
same,MIC50 of the component in combination,S. aureus ATTC 33591; garvicin KS + micrococcin P1,1.3 µg/mL
same,MIC50 of the component in combination,S. aureus ATTC 33591; [6],1.3 µg/mL
same,MIC50,S. aureus USA 300; [7],0.63 µg/mL
same,MIC50 of the component in combination,S. aureus USA 300; garvicin KS + micrococcin P1,0.156 µg/mL
same,MIC50 of the component in combination,S. aureus USA 300; [6],0.63 µg/mL
